Where two headings read alike, the source gives them in different places.
Test system: HepG2 cells
Assay: cells
Format: cell-based
[1] = HepG2, 24 h, NR = No response observed

OC[C@@H](O)[C@@H](O)[C@H](O)[C@@H](O)CO [Sorbitol, reference compound]
Osmotic & heat shock: hsp70: Effect: increase | AC50 (Homo sapiens, HepG2, 24 h, read-out: Osmotic & heat shock: hsp70: AC50): 91700 µM | Osmotic & heat shock: hsp70: MEC (human, 24 h): 29000 µM

Tunicamycin [reference compound]
ER stress panel 1: BiP: MEC (HepG2, 24 h): < 0.391 µM | ER stress panel 1: ER integrity: MEC (HepG2, 24 h): 0.453 µM | ER stress panel 1: XBP1: MEC (HepG2, 24 h): 0.532 µM | ER stress panel 2: ATF4: MEC (HepG2, 24 h): < 0.391 µM | ER stress panel 2: CHOP: MEC (HepG2, 24 h): 0.955 µM | ER stress panel 1: BiP: Effect [1]: increase | ER stress panel 1: ER integrity: Effect [1]: increase | ER stress panel 1: XBP1: Effect [1]: increase | ER stress panel 2: ATF4: Effect [1]: increase | ER stress panel 2: CHOP: Effect [1]: increase | AC50 (HepG2, 24 h, read-out: ER stress panel 1: BiP: AC50): > 1.56 µM | AC50 (HepG2, 24 h, read-out: ER stress panel 1: ER integrity: AC50): 2.22 µM | AC50 (HepG2, 24 h, read-out: ER stress panel 1: XBP1: AC50): > 3.13 µM | AC50 (HepG2, 24 h, read-out: ER stress panel 2: ATF4: AC50): 27.9 µM | AC50 (HepG2, 24 h, read-out: ER stress panel 2: CHOP: AC50): > 6.25 µM

CN(CCOc1ccc(CC2SC(=O)NC2=O)cc1)c1ccccn1 (stereo not shown) [Rosiglitazone, reference compound]
AC50 (Homo sapiens, HepG2, 24 h, read-out: Mitochondrial oxidative stress: PGC1α: AC50): > 125 µM | Mitochondrial oxidative stress: PGC1α: MEC (human, 24 h): 67.8 µM

Cc1oncc1C(=O)Nc1ccc(C(F)(F)F)cc1 [Leflunamide, reference compound]
Nuclear size: Effect: increase | Nuclear size: MEC: 1.18 µM | AC50 (HepG2, 24 h, read-out: Nuclear size: AC50): 9.87 µM

c1ccc2c(c1)cc1ccc3cccc4ccc2c1c34 [Benzo(a)pyrene, reference compound]
AC50 (Homo sapiens, HepG2, 24 h, read-out: AhR Translocation: AC50): > 100 µM | AhR Translocation: MEC (human, 24 h): 0.389 µM

C[C@H](CCC(=O)O)C[C@H](C)C[C@H](C)C(=O)/C=C(\O)[C@H](C)C[C@H](C)C/C=C/[C@@H](C)[C@@H](O)[C@@H](C)[C@@H](O)C[C@@H]1CC[C@@](C)([C@H]2CC[C@@](C)([C@@H](C)O)O2)O1 [Ionomycin, reference compound]
Apoptosis & necrosis: caspase 3/7: MEC (HepG2, 24 h): 0.0225 µM | Apoptosis & necrosis: cell cycle arrest: MEC (HepG2, 24 h): 0.0283 µM | Inflammation & pH: IL-8: MEC (HepG2, 24 h): 0.496 µM | Apoptosis & necrosis: caspase 3/7: Effect [1]: increase | Apoptosis & necrosis: cell cycle arrest: Effect [1]: decrease | Inflammation & pH: IL-8: Effect [1]: increase | AC50 (Homo sapiens, HepG2, 24 h, read-out: Apoptosis & necrosis: caspase 3/7: AC50): 0.798 µM | AC50 (Homo sapiens, HepG2, 24 h, read-out: Apoptosis & necrosis: cell cycle arrest: AC50): 0.056 µM | AC50 (Homo sapiens, HepG2, 24 h, read-out: Apoptosis & necrosis: cell membrane permeability: AC50): 30.8 µM | AC50 (Homo sapiens, HepG2, 24 h, read-out: Inflammation & pH: IL-8: AC50): > 10 µM

CCCCS(=N)(=O)CCC(N)C(=O)O [L-BSO, reference compound]
GSH content: Effect: decrease | GSH content: MEC: 0.725 µM | AC50 (HepG2, 24 h, read-out: GSH content: AC50): 37.5 µM

[Cd+2].[Cl-].[Cl-] [Cadmium (II) chloride, reference compound]
Metal stress: MTF1: MEC (HepG2, 24 h): 0.0751 µM | Metal stress: metallothionein: MEC (HepG2, 24 h): 0.0751 µM | Metal stress: MTF1: Effect [1]: increase | Metal stress: metallothionein: Effect [1]: increase | AC50 (HepG2, 24 h, read-out: Metal stress: MTF1: AC50): 7.05 µM | AC50 (HepG2, 24 h, read-out: Metal stress: metallothionein: AC50): 7.05 µM

CCCCCC[C@H]1C(=O)O[C@H](C)[C@H](NC(=O)c2cccc(NC=O)c2O)C(=O)O[C@@H](C)[C@@H]1OC(=O)CC(C)C [Antimycin A, reference compound]
Mitochondrial mass: Effect [1]: increase | AC50 (Homo sapiens, HepG2, 24 h, read-out: Mitochondrial mass: AC50): 0.245 µM

[Cl-].[Na+] [Sodium chloride, reference compound]
Osmotic & heat shock: NFAT: MEC (HepG2, 24 h): 1430 µM | Osmotic & heat shock: NFAT: Effect [1]: increase | AC50 (HepG2, 24 h, read-out: Osmotic & heat shock: NFAT: AC50): > 80000 µM

C=C(CC)C(=O)c1ccc(OCC(=O)O)c(Cl)c1Cl [Ethacrynic acid, reference compound]
AC50 (Homo sapiens, HepG2, 24 h, read-out: Oxidative stress: HMOX1: AC50): 19.2 µM | AC50 (Homo sapiens, HepG2, 24 h, read-out: Oxidative stress: NRF2: AC50): 28 µM | AC50 (Homo sapiens, HepG2, 24 h, read-out: Oxidative stress: SRXN1: AC50): 19 µM | Oxidative stress: HMOX1: MEC (human, 24 h): 0.824 µM | Oxidative stress: NRF2: MEC (human, 24 h): 3.52 µM | Oxidative stress: SRXN1: MEC (human, 24 h): 6.17 µM

CC[C@@]1(O)C(=O)OCc2c1cc1n(c2=O)Cc2cc3ccccc3nc2-1 [(S)-(+)-camptothecin, reference compound]
DNA damage: Phospho-p53: MEC (HepG2, 24 h): 0.412 µM | DNA damage: p-H2AX: MEC (HepG2, 24 h): 1.06 µM | DNA damage: Phospho-p53: Effect [1]: increase | DNA damage: p-H2AX: Effect [1]: increase | AC50 (HepG2, 24 h, read-out: DNA damage: Phospho-p53: AC50): 1.25 µM | AC50 (HepG2, 24 h, read-out: DNA damage: p-H2AX: AC50): 9.1 µM

Source: publication PMC11220827 (Frontiers in Pharmacology, 2024)
